The results in this text go back to US20260078120A1, “SUBSTITUTED PYRIDOPYRIMIDINONES” (MIRATI THERAPEUTICS, INC., priority 2022, published 2026).

Assay type in all cases: cell-based
Test [1] deals with SKBR3 (PI3Kα wild type) cells. Kind of test: Inhibition of pAKT formation, alphaLISA SureFire Ultra AKT 1/2/3 (pS473), SKBR3 cells. The following applies: Homo sapiens, SK-BR-3; Inhibition of pAKT in SKBR3 (PI3Kα wild type) cells; read-out: SKBR3 (WT) pAKT IC50 (nM) (H1047R mutant) IC50. The protocol: The ability of a compound of Formula (I) to inhibit the formation of pAKT was measured using alphaLISA Surefire Ultra AKT 1/2/3 (pS473) Assay Kit (#ALSU-PAKT-B50K) was obtained from Perkin Elmer (Waltham, MA).
To prepare assay plates for pAKT alphaLISA assays, cells were trypsinized, resuspended in fresh media, and viable cells were counted utilizing trypan blue exclusion. Prior to seeding, cells were washed with PBS and resuspended in HBSS (Gibco, #14025092). T47D (12,000/w), SKBR3(12,000/w), or MKN1(24,000/w) cells were seeded at 12 μl per well in a solid white flat bottom 384 cell culture plate (Perkin Elmer #6007680).
Immediately after seeding, cells were dosed using an Echo Liquid Handler (Beckman Coulter) with compounds at a […] starting concentration and serially diluted (1:4) for a total of 10 concentrations. […] Cells were incubated with the compounds (solubilized in DMSO) for approximately one hour or 24 hours at 37° C. After one hour (or 24 hours) of treatment, cells were lysed with 3 μl of the 5× lysis buffer (provided and incubated at room temperature for 15 min on a microtiter plate shaker). Once cells were sufficiently lysed, 7.5 μl of the acceptor bead mix (made using the manufacturers recommended dilutions) was added to each well and left on the microtiter plate shaker for 1 min prior to incubating plates at room temperature for one hour, in the absence of light. After one hour of incubation with the acceptor bead mix, 7.5 μl of the donor bead mix (made using the manufacturers recommended dilutions) was added to each well and left on the microtiter plate shaker for 1 min prior to incubating plates at room temperature overnight in the absence of light. Plates were then imaged the following day using a CLARIOstar microplate reader (BMG Labtech, Germany).
Percent of control values were calculated by subtracting the average signal from the positive control (alpelisib) treated wells from all treated wells (including DMSO control wells) and then divided by the average signal from the vehicle DMSO treated control wells. Percent of vehicle control values were plotted as log (inhibitor) vs. response-Variable slope (four parameters) for curve fitting and IC50 values were determined using XLfit.
Key: N.D. =not determined

Test [2] relates to T47D (PI3Kα H1047R mutant) cells. Briefly: CellTiter-Glo 2.0 luminescent cell viability assay, 72 hours, T47D cells. The procedure, abridged: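 Cells seeded at 1000 per well overnight were dosed with a 10-concentration, 1:4 series starting at 10 µM and incubated ~72 h at 37° C. Viability was read by CellTiter-Glo 2.0 luminescence after 30 min at room temperature. IC50 came from four-parameter fits of percent vehicle control.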
A general note: Cellular ATP, detected with luciferase, serves as a proxy for viable cell number.

For test [3] the test system is unchanged. Kind of test: Inhibition of pAKT formation, alphaLISA SureFire Ultra AKT 1/2/3 (pS473), T47D cells. The conditions noted are these: Homo sapiens, T47D. The procedure, abridged: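 T47D cells (12,000/well) in HBSS were dosed with compound at 10 concentrations (10.4 μM top, 1:4 dilutions) for about 1 h or 24 h at 37 °C, then lysed. pS473 AKT was read by alphaLISA. Signals were normalized to alpelisib and DMSO controls, and IC50 came from a four-parameter fit.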
Background: Bead proximity is the source of the signal in Alpha formats.

For test [4], the system named is SKBR3 (PI3Kα wild type) cells. Briefly: CellTiter-Glo 2.0 luminescent cell viability assay, 72 hours, SKBR3 cells. The conditions noted are these: Homo sapiens, SK-BR-3, 72 h. In outline: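 Viability measured via CTG luminescence following roughly 72 hours of compound exposure at 37° C. Dosing used a 10 um starting concentration diluted 1:4 over 10 points; percent-of-vehicle data fitted with a variable-slope four-parameter model for IC50.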

Where [5] appears, read: Homo sapiens, T47D, 72 h, T47D (PI3Kα H1047R mutant) cells, CellTiter-Glo, approximately 72 hours, read-out: T47D (H1047R mutant) Viability IC50.
Where [6] appears, read: T47D (PI3Kα H1047R mutant) cells, inhibition of pAKT (pS473) formation, approximately one hour or 24 hours treatment, read-out: T47D pAKT (H1047R mutant) IC50.
Where [7] appears, read: SKBR3 (PI3Kα wild type) cells, CellTiter-Glo, approximately 72 hours, read-out: SKBR3 (WT) Viability IC50.

A word on the IC50: it is the midpoint of a concentration-inhibition curve.

With `Cc1ccc(-c2cc(=O)n3cc(C)cc(C(C)Nc4ccccc4C(=O)O)c3n2)cc1` (stereo not drawn) [7-2, 2-((1-(7-methyl-4-oxo-2-(p-tolyl)-4H-pyrido[1,2-a]pyrimidin-9-yl)ethyl)amino)benzoic acid], the IC50 in test [1] was greater than 10000 nM; in test [2] (setting [5]), greater than 10000 nM; in test [3] (setting [6]) it was greater than 100000 nM; in test [4] (setting [7]), greater than 10000 nM.

With `Cc1cc(C(C)Nc2ccccc2C(=O)O)c2nc(N3CCCCC3)cc(=O)n2c1` (stereo not drawn) [Example 2, 2-((1-(7-methyl-4-oxo-2-(piperidin-1-yl)-4H-pyrido[1,2-a]pyrimidin-9-yl)ethyl)amino) benzoic acid], the IC50 in test [1] is greater than 10000 nM; in test [2] (Homo sapiens, T47D, 72 h, read-out: T47D (H1047R mutant) Viability IC50 (nM)), 2970 nM; in test [3] (read-out: T47D pAKT (H1047R mutant) IC50 (nM)), 14 nM; in test [4] (read-out: SKBR3 (WT) Viability IC50 (nM)), greater than 10000 nM.

Consider `Cc1cc([C@@H](C)Nc2ccccc2C(=O)O)c2nc(N3CCC(F)(F)CC3)c(C#N)c(=O)n2c1` [Example 10-23, (R)-2-((1-(3-cyano-2-(4,4-difluoropiperidin-1-yl)-7-methyl-4-oxo-4H-pyrido[1,2-a]pyrimidin-9-yl)ethyl)amino)benzoic acid], for which the IC50 in test [1] came out at 1200 nM; in test [2] (setting [5]), 48.3 nM; in test [3] (setting [6]) it was 1.35 nM; in test [4] (setting [7]), 8970 nM.

As for `Cc1cc([C@@H](C)Nc2ccccc2C(=O)O)c2nc(N3CC(F)(F)C3)c(C#N)c(=O)n2c1` [Example 10-27, (R)-2-((1-(3-cyano-2-(3,3-difluoroazetidin-1-yl)-7-methyl-4-oxo-4H-pyrido[1,2-a]pyrimidin-9-yl)ethyl)amino)benzoic acid], the IC50 in test [1] was 780 nM; in test [2] (setting [5]), 52 nM; in test [3] (setting [6]), 2.1 nM; in test [4] (setting [7]) it was greater than 10000 nM.

For the compound `Cc1cc([C@@H](C)Nc2cscc2C(=O)O)c2nc(N3CCC(F)(F)CC3)c(C#N)c(=O)n2c1` [Example 10-61, (R)-4-((1-(3-cyano-2-(4,4-difluoropiperidin-1-yl)-7-methyl-4-oxo-4H-pyrido[1,2-a]pyrimidin-9-yl)ethyl)amino)thiophene-3-carboxylic acid], the IC50 in test [1] is 3650 nM; in test [2] (setting [5]), 183 nM; in test [3] (setting [6]) it was 7.7 nM; in test [4] (setting [7]), greater than 10000 nM.

Consider `Cc1cc([C@@H](C)Nc2cccc(F)c2C(=O)O)c2nc(N3CCC(F)(F)CC3)c(C#N)c(=O)n2c1` [Example 10-62, (R)-2-((1-(3-cyano-2-(4,4-difluoropiperidin-1-yl)-7-methyl-4-oxo-4H-pyrido[1,2-a]pyrimidin-9-yl)ethyl)amino)-6-fluorobenzoic acid], for which the IC50 is 8650 nM in test [1], 566 nM in test [2] (setting [5]), 4.84 nM in test [3] (setting [6]) and greater than 10000 nM in test [4] (setting [7]).

For the compound `Cc1cc([C@@H](C)Nc2nccnc2C(=O)O)c2nc(N3CCC(F)(F)CC3)c(C#N)c(=O)n2c1` [Example 10-63, (R)-3-((1-(3-cyano-2-(4,4-difluoropiperidin-1-yl)-7-methyl-4-oxo-4H-pyrido[1,2-a]pyrimidin-9-yl)ethyl)amino)pyrazine-2-carboxylic acid], the IC50 in test [1] was greater than 10000 nM; in test [2] (setting [5]), 3720 nM; in test [3] (setting [6]) it was 144 nM; in test [4] (setting [7]), greater than 10000 nM.

In the case of `Cc1cc([C@@H](C)Nc2ccc(Cl)cc2C(=O)O)c2nc(N3CCC(F)(F)CC3)c(C#N)c(=O)n2c1` [Example 10-64, (R)-5-chloro-2-((1-(3-cyano-2-(4,4-difluoropiperidin-1-yl)-7-methyl-4-oxo-4H-pyrido[1,2-a]pyrimidin-9-yl)ethyl)amino)benzoic acid], the IC50 in test [1] is 847 nM; in test [2] (setting [5]), 628 nM; in test [3] (setting [6]) it was 16.1 nM; in test [4] (setting [7]), greater than 10000 nM.

For the compound `Cc1cc([C@@H](C)Nc2ccccc2C(=O)O)c2nc(C3CCC(F)(F)CC3)c(C#N)c(=O)n2c1` [Example 10-65, (R)-2-((1-(3-cyano-2-(4,4-difluorocyclohexyl)-7-methyl-4-oxo-4H-pyrido[1,2-a]pyrimidin-9-yl)ethyl)amino)benzoic acid], the IC50 in test [1] was 681 nM; in test [2] (setting [5]) it was 246 nM; in test [3] (setting [6]), 3.25 nM; in test [4] (setting [7]), greater than 10000 nM.

With `Cc1cc([C@@H](C)Nc2ccccc2C(=O)O)c2nc(N3CC4CC(C4)C3)c(C)c(=O)n2c1` [Example 10-124, (R)-2-((1-(2-(3-azabicyclo[3.1.1]heptan-3-yl)-3,7-dimethyl-4-oxo-4H-pyrido[1,2-a]pyrimidin-9-yl)ethyl)amino)benzoic acid], the IC50 in test [2] (setting [5]) is 105 nM; in test [3] (setting [6]), 1.59 nM; in test [4] (setting [7]), greater than 10000 nM.

With `Cc1cc([C@@H](C)Nc2ccccc2C(=O)O)c2nc(N3CCN(CC(F)(F)F)CC3)c(C)c(=O)n2c1` [Example 10-125, (R)-2-((1-(3,7-dimethyl-4-oxo-2-(4-(2,2,2-trifluoroethyl)piperazin-1-yl)-4H-pyrido[1,2-a]pyrimidin-9-yl)ethyl)amino)benzoic acid], the IC50 is 107 nM in test [2] (setting [5]), 3.13 nM in test [3] (setting [6]) and greater than 10000 nM in test [4] (setting [7]).

Regarding `Cc1cc([C@@H](C)Nc2ccccc2C(=O)O)c2nc(N3CCC(F)(F)[C@H](C)C3)c(C)c(=O)n2c1` [Example 10-126, 2-(((R)-1-(2-((R)-4,4-difluoro-3-methylpiperidin-1-yl)-3,7-dimethyl-4-oxo-4H-pyrido[1,2-a]pyrimidin-9-yl)ethyl)amino)benzoic acid], the IC50 in test [2] (setting [5]) is 109 nM; in test [3] (setting [6]) it was 2.64 nM; in test [4] (setting [7]), greater than 10000 nM.

For `Cc1cc([C@@H](C)Nc2ccccc2C(=O)O)c2nc(N3CCC(F)(F)[C@@H](C)C3)c(C)c(=O)n2c1` [Example 10-127, 2-(((R)-1-(2-((S)-4,4-difluoro-3-methylpiperidin-1-yl)-3,7-dimethyl-4-oxo-4H-pyrido[1,2-a]pyrimidin-9-yl)ethyl)amino)benzoic acid], the IC50 is 74.4 nM in test [2] (setting [5]), 1.19 nM in test [3] (setting [6]) and greater than 10000 nM in test [4] (setting [7]).

Regarding `Cc1cc([C@@H](C)Nc2ccccc2C(=O)O)c2nc(N3CCN(c4cccnc4C#N)CC3)c(C)c(=O)n2c1` [Example 10-131, (R)-2-((1-(2-(4-(2-cyanopyridin-3-yl)piperazin-1-yl)-3,7-dimethyl-4-oxo-4H-pyrido[1,2-a]pyrimidin-9-yl)ethyl)amino)benzoic acid], the IC50 in test [2] (setting [5]) is 48.8 nM; in test [3] (setting [6]), 1.86 nM; in test [4] (setting [7]), greater than 10000 nM.

Turning to `Cc1cc([C@@H](C)Nc2ccccc2C(=O)O)c2nc(N3Cc4cc(F)c(F)cc4C3)c(C)c(=O)n2c1` [Example 10-140, (R)-2-((1-(2-(5,6-difluoroisoindolin-2-yl)-3,7-dimethyl-4-oxo-4H-pyrido[1,2-a]pyrimidin-9-yl)ethyl)amino)benzoic acid], the half-inhibitory concentration (IC50) in test [2] (T47D (PI3Kα H1047R mutant) cells, CellTiter-Glo, approximately 72 hours, read-out: T47D (H1047R mutant) Viability IC50) is 75.8 nM; in test [3] (setting [6]), 572 nM; in test [4] (setting [7]) it was greater than 10000 nM.

For the compound `Cc1cc([C@@H](C)Nc2ccccc2C(=O)O)c2nc(N3CC4CC3C(F)(F)C4)c(C)c(=O)n2c1` (stereo partly drawn) [Example 10-141, 2-(((1R)-1-(2-(6,6-difluoro-2-azabicyclo[2.2.1]heptan-2-yl)-3,7-dimethyl-4-oxo-4H-pyrido[1,2-a]pyrimidin-9-yl)ethyl)amino)benzoic acid], the concentration for half-maximal inhibition (IC50) in test [2] (setting [5]) was 163 nM; in test [3] (setting [6]), 4.1 nM; in test [4] (setting [7]), greater than 10000 nM.
